# Source: the supplement of paper PMC10307832
# Tests used:
# Assay in all cases: relative viability (nuclei count vs DMSO), 5 days (fraction); higher = more cells survive
# A-427 = tested on: A-427
# Procedure, shortened: (§1)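 Lung cancer cell lines, seeded in 1536-well plates, were treated the following day by pin tool with a single drug or with five library-drug doses (not always all listed) in √10 steps on top of a fixed anchor-drug dose. Cells were fixed and nuclei stained in one step after 5 days, and nuclei were counted. Relative viability is the nuclei count for treated wells divided by that for vehicle wells, reported as medians of duplicate plates.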
# COR-L 105 = tested on: COR-L 105
# Procedure, shortened: as §1
# H3255 = tested on: H3255
# Procedure, shortened: as §1
# HCC-44 = tested on: HCC-44
# Procedure, shortened: as §1
# HCC-827 = tested on: HCC-827
# Procedure, shortened: as §1
# LCLC-103H = tested on: LCLC-103H
# Procedure, shortened: as §1
# LOU-NH91 = tested on: LOU-NH91
# Procedure, shortened: as §1
# LXF-289 = tested on: LXF-289
# Procedure, shortened: as §1
# NCI-H1792 = tested on: NCI-H1792
# Procedure, shortened: as §1
# NCI-H1793 = tested on: NCI-H1793
# Procedure, shortened: as §1
# NCI-H1915 = tested on: NCI-H1915
# Procedure, shortened: as §1
# NCI-H1944 = tested on: NCI-H1944
# Procedure, shortened: as §1
# NCI-H1975 = tested on: NCI-H1975
# Procedure, shortened: as §1
# NCI-H1993 = tested on: NCI-H1993
# Procedure, shortened: as §1
# NCI-H2023 = tested on: NCI-H2023
# Procedure, shortened: as §1
# NCI-H2087 = tested on: NCI-H2087
# Procedure, shortened: as §1
# NCI-H2170 = tested on: NCI-H2170
# Procedure, shortened: as §1
# NCI-H358 = tested on: NCI-H358
# Procedure, shortened: as §1
# NCI-H520 = tested on: NCI-H520
# Procedure, shortened: as §1
# NCI-H522 = tested on: NCI-H522
# Procedure, shortened: as §1
# SK-MES-1 = tested on: SK-MES-1
# Procedure, shortened: as §1
# SW 1573 = tested on: SW 1573
# Procedure, shortened: as §1
# SW 900 = tested on: SW 900
# Procedure, shortened: as §1
structure (smiles),measurement,setting,value
Cc1csc(=NC2CCCCC2)n1/N=C/c1ccc(O)c(O)c1O [MIM1] + N=C(N)NC(=N)NCCc1ccccc1 [Phenformin] (partner 250 µM),relative viability,A-427; first compound 0.2 µM,0.35
same,relative viability,A-427; first compound 2 µM,0.361
same,relative viability,A-427; first compound 6.325 µM,0.244
same,relative viability,A-427; first compound 20 µM,0.137
same,relative viability,COR-L 105; first compound 0.2 µM,0.513
same,relative viability,COR-L 105; first compound 0.6325 µM,0.461
same,relative viability,COR-L 105; first compound 2 µM,0.404
same,relative viability,COR-L 105; first compound 6.325 µM,0.316
same,relative viability,COR-L 105; first compound 20 µM,0.307
same,relative viability,H3255; first compound 0.2 µM,0.33
same,relative viability,H3255; first compound 0.6325 µM,0.386
same,relative viability,H3255; first compound 2 µM,0.379
same,relative viability,H3255; first compound 6.325 µM,0.402
same,relative viability,H3255; first compound 20 µM,0.302
same,relative viability,HCC-44; first compound 0.2 µM,0.239
same,relative viability,HCC-44; first compound 0.6325 µM,0.138
same,relative viability,HCC-44; first compound 2 µM,0.111
same,relative viability,HCC-44; first compound 6.325 µM,0.154
same,relative viability,HCC-44; first compound 20 µM,0.13
same,relative viability,HCC-827; first compound 0.2 µM,0.412
same,relative viability,HCC-827; first compound 0.6325 µM,0.377
same,relative viability,HCC-827; first compound 2 µM,0.404
same,relative viability,HCC-827; first compound 6.325 µM,0.31
same,relative viability,HCC-827; first compound 20 µM,0.13
same,relative viability,LCLC-103H; first compound 0.2 µM,0.334
same,relative viability,LCLC-103H; first compound 0.6325 µM,0.297
same,relative viability,LCLC-103H; first compound 2 µM,0.354
same,relative viability,LCLC-103H; first compound 6.325 µM,0.334
same,relative viability,LCLC-103H; first compound 20 µM,0.291
same,relative viability,LOU-NH91; first compound 0.2 µM,0.695
same,relative viability,LOU-NH91; first compound 0.6325 µM,0.709
same,relative viability,LOU-NH91; first compound 2 µM,0.625
same,relative viability,LOU-NH91; first compound 6.325 µM,0.548
same,relative viability,LOU-NH91; first compound 20 µM,0.302
same,relative viability,LXF-289; first compound 0.2 µM,0.517
same,relative viability,LXF-289; first compound 0.6325 µM,0.476
same,relative viability,LXF-289; first compound 2 µM,0.532
same,relative viability,LXF-289; first compound 6.325 µM,0.452
same,relative viability,LXF-289; first compound 20 µM,0.264
same,relative viability,NCI-H1792; first compound 0.2 µM,0.446
same,relative viability,NCI-H1792; first compound 0.6325 µM,0.401
same,relative viability,NCI-H1792; first compound 2 µM,0.322
same,relative viability,NCI-H1792; first compound 6.325 µM,0.353
same,relative viability,NCI-H1792; first compound 20 µM,0.43
same,relative viability,NCI-H1793; first compound 0.2 µM,0.389
same,relative viability,NCI-H1793; first compound 2 µM,0.351
same,relative viability,NCI-H1793; first compound 6.325 µM,0.373
same,relative viability,NCI-H1793; first compound 20 µM,0.302
same,relative viability,NCI-H1915; first compound 0.2 µM,0.421
same,relative viability,NCI-H1915; first compound 0.6325 µM,0.306
same,relative viability,NCI-H1915; first compound 2 µM,0.344
same,relative viability,NCI-H1915; first compound 6.325 µM,0.295
same,relative viability,NCI-H1915; first compound 20 µM,0.22
same,relative viability,NCI-H1944; first compound 0.2 µM,0.208
same,relative viability,NCI-H1944; first compound 0.6325 µM,0.206
same,relative viability,NCI-H1944; first compound 2 µM,0.149
same,relative viability,NCI-H1944; first compound 6.325 µM,0.163
same,relative viability,NCI-H1944; first compound 20 µM,0.104
same,relative viability,NCI-H1975; first compound 0.2 µM,0.432
same,relative viability,NCI-H1975; first compound 0.6325 µM,0.403
same,relative viability,NCI-H1975; first compound 2 µM,0.39
same,relative viability,NCI-H1975; first compound 6.325 µM,0.296
same,relative viability,NCI-H1975; first compound 20 µM,0.179
same,relative viability,NCI-H1993; first compound 0.2 µM,0.481
same,relative viability,NCI-H1993; first compound 0.6325 µM,0.545
same,relative viability,NCI-H1993; first compound 2 µM,0.474
same,relative viability,NCI-H1993; first compound 6.325 µM,0.443
same,relative viability,NCI-H1993; first compound 20 µM,0.463
same,relative viability,NCI-H2023; first compound 0.2 µM,0.417
same,relative viability,NCI-H2023; first compound 0.6325 µM,0.416
same,relative viability,NCI-H2023; first compound 2 µM,0.294
same,relative viability,NCI-H2023; first compound 6.325 µM,0.127
same,relative viability,NCI-H2023; first compound 20 µM,0.0931
same,relative viability,NCI-H2087; first compound 0.2 µM,0.457
same,relative viability,NCI-H2087; first compound 0.6325 µM,0.443
same,relative viability,NCI-H2087; first compound 2 µM,0.478
same,relative viability,NCI-H2087; first compound 6.325 µM,0.289
same,relative viability,NCI-H2087; first compound 20 µM,0.225
same,relative viability,NCI-H2170; first compound 0.2 µM,0.407
same,relative viability,NCI-H2170; first compound 0.6325 µM,0.406
same,relative viability,NCI-H2170; first compound 2 µM,0.414
same,relative viability,NCI-H2170; first compound 6.325 µM,0.264
same,relative viability,NCI-H2170; first compound 20 µM,0.172
same,relative viability,NCI-H358; first compound 0.2 µM,0.373
same,relative viability,NCI-H358; first compound 0.6325 µM,0.296
same,relative viability,NCI-H358; first compound 2 µM,0.299
same,relative viability,NCI-H358; first compound 6.325 µM,0.135
same,relative viability,NCI-H358; first compound 20 µM,0.118
same,relative viability,NCI-H520; first compound 0.2 µM,0.793
same,relative viability,NCI-H520; first compound 0.6325 µM,0.512
same,relative viability,NCI-H520; first compound 2 µM,0.561
same,relative viability,NCI-H520; first compound 6.325 µM,0.447
same,relative viability,NCI-H520; first compound 20 µM,0.323
same,relative viability,NCI-H522; first compound 0.2 µM,0.697
same,relative viability,NCI-H522; first compound 0.6325 µM,0.665
same,relative viability,NCI-H522; first compound 2 µM,0.672
same,relative viability,NCI-H522; first compound 6.325 µM,0.52
same,relative viability,NCI-H522; first compound 20 µM,0.571
same,relative viability,SK-MES-1; first compound 0.2 µM,0.643
same,relative viability,SK-MES-1; first compound 0.6325 µM,0.665
same,relative viability,SK-MES-1; first compound 2 µM,0.617
same,relative viability,SK-MES-1; first compound 6.325 µM,0.484
same,relative viability,SK-MES-1; first compound 20 µM,0.41
same,relative viability,SW 1573; first compound 0.2 µM,0.377
same,relative viability,SW 1573; first compound 0.6325 µM,0.455
same,relative viability,SW 1573; first compound 2 µM,0.442
same,relative viability,SW 1573; first compound 6.325 µM,0.25
same,relative viability,SW 1573; first compound 20 µM,0.081
same,relative viability,SW 900; first compound 0.2 µM,0.683
same,relative viability,SW 900; first compound 0.6325 µM,0.712
same,relative viability,SW 900; first compound 2 µM,0.778
same,relative viability,SW 900; first compound 6.325 µM,0.495
same,relative viability,SW 900; first compound 20 µM,0.176
